{"source": "paper PMC4007695", "about": "(Cell reports, 2013)", "key": {"[1]": {"target": "as-TOR2 (TOR2 kinase, analog-sensitive allele) (Saccharomyces cerevisiae, UniProt P32600, L2178A)", "experiment": "in vitro kinase assay of purified TORC2 at […] ATP", "assay_type": "biochemical"}, "wt-TOR2 (TOR2 kinase)": {"target": "wt-TOR2 (TOR2 kinase) (Saccharomyces cerevisiae, UniProt P32600)", "experiment": "in vitro kinase assay of purified TORC2 at […] ATP", "assay_type": "biochemical"}}, "data": [{"smiles": "Cn1c(=O)n(-c2ccc(C(C)(C)C#N)cc2)c2c3cc(-c4cnc5ccccc5c4)ccc3ncc21", "note": "[BEZ235]", "values": [{"measurement": "IC50", "setting": "[1]", "value": 0.05, "unit": "µM"}, {"measurement": "IC50", "setting": "wt-TOR2 (TOR2 kinase)", "value": 0.111, "unit": "µM"}]}]}
